Patent publication US9174964B2, “AMPK-activating piperidinyloxy-substituted 2,3-dihydro-1H-indene-1-amine compounds and pharmaceutical compositions including the same” (Rigel Pharmaceuticals, Inc., priority 2007, dated 2015)
Structures can show the parent of a compound that is named as a salt.

What follows are molecules tested against AMPK (assay: AMPK activation, enzyme-linked immunosorbent assay). Settings: Table 2, AMPK activation, ELISA.
Format: biochemical
Method: Compounds 1-50 of Table 1 were assayed for their ability to activate AMPK using an enzyme-linked immunosorbent assay.
Compounds 51-60 of Table 1 were assayed for their ability to activate AMPK using an enzyme-linked immunosorbent assay.
Compounds 61-131 of Table 1 were assayed for their ability to activate AMPK using an enzyme-linked immunosorbent assay.
Compounds 137-141 and 143-155 of Table 1 were assayed for their ability to activate AMPK using an enzyme-linked immunosorbent assay.
Compounds 156-160 of Table 1 were assayed for their ability to activate AMPK using an enzyme-linked immunosorbent assay.
With `O=C(NC1CCN(Cc2c[nH]cn2)CC1)c1ccc(OC2CCN(c3ccc(C(F)(F)F)cc3)CC2)cn1` [Compound 48, N-(1-((1H-imidazol-4-yl)methyl)piperidin-4-yl)-5-(1-(4-(trifluoromethyl)phenyl)piperidin-4-yloxy)picolinamide] the EC50 was 1000 to 5000 nM.
For `O=C(NC1CCN(Cc2ccncc2)CC1)c1ccnc(OC2CCN(c3ccc(C(F)(F)F)cc3)CC2)c1` [Compound 20, N-(1-(pyridin-4-ylmethyl)piperidin-4-yl)-2-(1-(4-(trifluoromethyl)phenyl)piperidin-4-yloxy)isonicotinamide], the EC50 was 500 to 1000 nM.
`COC(=O)c1ccc(CN2CCC(NC(=O)c3ccc(OC4CCN(c5ccc(C(F)(F)F)cc5)CC4)cn3)CC2)cc1` [Compound 8, methyl 4-((4-(5-(1-(4-(trifluoromethyl)phenyl)piperidin-4-yloxy)picolinamido)piperidin-1-yl)methyl)benzoate] was tested, and the EC50 was under 100 nM.
Molecule `N#Cc1ccc(CN2CCC(NC(=O)c3ccnc(OC4CCN(c5ccc(C(F)(F)F)cc5)CC4)c3)CC2)cc1` [Compound 21, N-(1-(4-cyanobenzyl)piperidin-4-yl)-2-(1-(4-(trifluoromethyl)phenyl)piperidin-4-yloxy)isonicotinamide] has an EC50 of 100 to 500 nM.
Molecule `N#Cc1ccc(CN2CCC(NC(=O)c3ccc(OC4CCN(c5ccc(C(F)(F)F)cc5)CC4)nc3)CC2)cc1` [Compound 35, N-(1-(4-cyanobenzyl)piperidin-4-yl)-6-(1-(4-(trifluoromethyl)phenyl)piperidin-4-yloxy)nicotinamide] has an EC50 of 100 to 500 nM.
`N#Cc1ccc(CN2CCC(NC(=O)c3ccc(OC4CCN(c5ccc(C(F)(F)F)cc5)CC4)cn3)CC2)cc1` [Compound 4, N-(1-(4-cyanobenzyl)piperidin-4-yl)-5-(1-(4-(trifluoromethyl)phenyl)piperidin-4-yloxy)picolinamide] showed an EC50 of under 100 nM.
`O=C(NCCCNCc1ccncc1)c1ccc(OC2CCN(c3ccc(C(F)(F)F)cc3)CC2)cn1` [Compound 50, N-(3-(pyridin-4-ylmethylamino)propyl)-5-(1-(4-(trifluoromethyl)phenyl)piperidin-4-yloxy)picolinamide] showed an EC50 of 1000 to 5000 nM.
In the case of `CN(C)c1ccc(CN2CCC(NC(=O)c3ccc(OC4CCN(c5ccc(C(F)(F)F)cc5)CC4)cn3)CC2)cc1` [Compound 39, N-(1-(4-(dimethylamino)benzyl)piperidin-4-yl)-5-(1-(4-(trifluoromethyl)phenyl)piperidin-4-yloxy)picolinamide], the EC50 is reported as 100 to 500 nM.
With `O=C(N[C@H]1CCN(Cc2ccc(F)cc2)C1)c1ccc(OC2CCN(c3ccc(C(F)(F)F)cc3)CC2)cn1` [Compound 32, (S)-N-(1-(4-fluorobenzyl)pyrrolidin-3-yl)-5-(1-(4-(trifluoromethyl)phenyl)piperidin-4-yloxy)picolinamide] the EC50 was 100 to 500 nM.
`N#Cc1ccc(N2CCC(Oc3ccc(C(=O)NC4CCN(Cc5cccnc5)CC4)nc3)CC2)cc1` [Compound 6, N-(1-(pyridin-3-ylmethyl)piperidin-4-yl)-5-(1-(4-cyanophenyl)piperidin-4-yloxy)picolinamide] was tested, and the EC50 was 100 to 500 nM.

Same assay, conditions: Table 3, AMPK activation, ELISA
Molecule `N#Cc1ccc(CN2CCC(Oc3ccc(S(=O)(=O)NC4CCN(Cc5ccncc5)CC4)cn3)CC2)cc1` [Compound 53, 6-(1-(4-cyanobenzyl)piperidin-4-yloxy)-N-(1-(pyridin-4-ylmethyl)piperidin-4-yl)pyridine-3-sulfonamide] has an EC50 of 100 to 500 nM.
Molecule `CC(C)(C)OC(=O)N1CCC(NS(=O)(=O)c2ccc(OC3CCN(c4ccc(C(F)(F)F)cc4)CC3)nc2)CC1` [Compound 54, tert-butyl 4-(6-(1-(4-(trifluoromethyl)phenyl)piperidin-4-yloxy)pyridine-3-sulfonamido)piperidine-1-carboxylate] has an EC50 of 1000 to 5000 nM.

Same assay, conditions: Table 4, AMPK activation, ELISA
For `O=C(NC1CCNCC1)c1cc2ccc(OC3CCN(c4ccc(OC(F)(F)F)cc4)CC3)cc2o1` [Compound 83, N-(piperidin-4-yl)-6-(1-(4-(trifluoromethoxy)phenyl)piperidin-4-yloxy)benzofuran-2-carboxamide hydrochloride], the EC50 was 100 to 500 nM.
With `Cc1c(C(=O)NC2CCN(Cc3ccc(C#N)cc3)CC2)oc2cc(OC3CCN(c4ccc(C(F)(F)F)cc4)CC3)ccc12` [Compound 64, N-(1-(4-cyanobenzyl)piperidin-4-yl)-3-methyl-6-(1-(4-(trifluoromethyl)phenyl)piperidin-4-yloxy)benzofuran-2-carboxamide] the EC50 was under 100 nM.
Molecule `Cc1c(C(=O)NC2CCN(Cc3ccncc3)CC2)oc2cc(OC3CCN(c4ccc(C(F)(F)F)cc4)CC3)ccc12` [Compound 65, 3-methyl-N-(1-(pyridin-4-ylmethyl)piperidin-4-yl)-6-(1-(4-(trifluoromethyl)phenyl)piperidin-4-yloxy)benzofuran-2-carboxamide] has an EC50 of under 100 nM.
Work on `O=C(NC1CCN(S(=O)(=O)c2cccnc2)CC1)c1cc2ccc(OC3CCN(c4ccc(OC(F)(F)F)cc4)CC3)cc2o1` [Compound 108, N-(1-(pyridin-3-ylsulfonyl)piperidin-4-yl)-6-(1-(4-(trifluoromethoxy)phenyl)piperidin-4-yloxy)benzofuran-2-carboxamide] yielded an EC50 of 100 to 500 nM.
In the case of `O=C(NC1CCN(Cc2ccccc2)CC1)c1cc2cc(OC3CCN(Cc4ccc(F)c(F)c4)CC3)ccc2o1` [Compound 74, N-(1-benzylpiperidin-4-yl)-5-(1-(3,4-difluorobenzyl)piperidin-4-yloxy)benzofuran-2-carboxamide], the EC50 is reported as 100 to 500 nM.
For `O=C(NC1CCN(Cc2cccnc2)CC1)c1cc2ccc(OC3CCN(c4ccc(C(F)(F)F)cc4)CC3)cc2o1` [Compound 96, N-(1-(pyridin-3-ylmethyl)piperidin-4-yl)-6-(1-(4-(trifluoromethyl)phenyl)piperidin-4-yloxy)benzofuran-2-carboxamide], the EC50 was under 100 nM.
`CC(C)(C)OC(=O)N1CCC(NC(=O)c2cc3cc(OC4CCN(Cc5ccc(C#N)cc5)CC4)ccc3o2)CC1` [Compound 113, tert-butyl 4-(5-(1-(4-cyanobenzyl)piperidin-4-yloxy)benzofuran-2-carboxamido)piperidine-1-carboxylate] was tested, and the EC50 was 100 to 500 nM.
In the case of `O=C(N[C@H]1CCN(Cc2ccncc2)C1)c1cc2cc(OC3CCN(Cc4ccc(Cl)cc4)CC3)ccc2o1` [Compound 129, (S)-5-(1-(4-chlorobenzyl)piperidin-4-yloxy)-N-(1-(pyridin-4-ylmethyl)pyrrolidin-3-yl)benzofuran-2-carboxamide], the EC50 is reported as 1000 to 10000 nM.
Molecule `O=C(NC1CCN(C(=O)c2ccncc2)CC1)c1cc2cc(OC3CCN(c4ccc(C(F)(F)F)cc4)CC3)ccc2o1` [Compound 115, N-(1-isonicotinoylpiperidin-4-yl)-5-(1-(4-(trifluoromethyl)phenyl)piperidin-4-yloxy)benzofuran-2-carboxamide] has an EC50 of under 100 nM.
`O=C(N[C@@H]1CCN(C(=O)c2ccncc2)C1)c1cc2cc(OC3CCN(c4ccc(C(F)(F)F)cc4)CC3)ccc2o1` [Compound 125, (R)-N-(1-isonicotinoylpyrrolidin-3-yl)-5-(1-(4-(trifluoromethyl)phenyl)piperidin-4-yloxy)benzofuran-2-carboxamide] was tested, and the EC50 was 1000 to 10000 nM.

Same assay, conditions: Table 4, AMPK activation, ELISA; formate salt
Molecule `O=C(NC1CCN(Cc2ccncc2)CC1)c1cc2cc(OC3CCN(c4ccc(C(F)(F)F)cc4)CC3)ccc2o1` [Compound 105, N-(1-(pyridin-4-ylmethyl)piperidin-4-yl)-5-(1-(4-(trifluoromethyl)phenyl)piperidin-4-yloxy)benzofuran-2-carboxamide, formate salt] has an EC50 of under 100 nM.

Same assay, conditions: Table 5, AMPK activation, ELISA
In the case of `O=C(NC1CCN(Cc2cccnc2)CC1)c1sc2cc(OC3CCN(c4ccc(C(F)(F)F)cc4)CC3)ccc2c1Cl` [Compound 152, 3-chloro-N-(1-(pyridin-3-ylmethyl)piperidin-4-yl)-6-(1-(4-(trifluoromethyl)phenyl)piperidin-4-yloxy)benzo[b]thiophene-2-carboxamide], the EC50 is reported as under 100 nM.
`O=C(NC1CCN(Cc2ccncc2)CC1)c1cc2cc(OC3CCN(c4ccc(OC(F)(F)F)cc4)CC3)ccc2s1` [Compound 137, N-(1-(pyridin-4-ylmethyl)piperidin-4-yl)-5-(1-(4-(trifluoromethoxy)phenyl)piperidin-4-yloxy)benzo[b]thiophene-2-carboxamide] was tested, and the EC50 was under 100 nM.
`N#Cc1ccc(CN2CCC(NC(=O)c3cc4ccc(OC5CCN(c6ccc(C(F)(F)F)cc6)CC5)cc4s3)CC2)cc1` [Compound 144, N-(1-(4-cyanobenzyl)piperidin-4-yl)-6-(1-(4-(trifluoromethyl)phenyl)piperidin-4-yloxy)benzo[b]thiophene-2-carboxamide] showed an EC50 of under 100 nM.
Molecule `N#Cc1ccc(CN2CCC(NC(=O)c3sc4cc(OC5CCN(c6ccc(C(F)(F)F)cc6)CC5)ccc4c3Cl)CC2)cc1` [Compound 154, 3-chloro-N-(1-(4-cyanobenzyl)piperidin-4-yl)-6-(1-(4-(trifluoromethyl)phenyl)piperidin-4-yloxy)benzo[b]thiophene-2-carboxamide] has an EC50 of under 100 nM.

Same assay, conditions: Table 6, AMPK activation, ELISA
For `N#Cc1ccc(CN2CCC(NC3CCc4cc(OC5CCN(c6ccc(C(F)(F)F)cc6)CC5)ccc43)CC2)cc1` (stereo not drawn) [Compound 160, 4-((4-(5-(1-(4-(trifluoromethyl)phenyl)piperidin-4-yloxy)-2,3-dihydro-1H-inden-1-ylamino)piperidin-1-yl)methyl)benzonitrile], the EC50 was under 500 nM.
`FC(F)(F)c1ccc(N2CCC(Oc3ccc4c(c3)CCC4NC3CCN(Cc4ccncc4)CC3)CC2)cc1` (stereo not drawn) [Compound 158, 1-(pyridin-4-ylmethyl)-N-(5-(1-(4-(trifluoromethyl)phenyl)piperidin-4-yloxy)-2,3-dihydro-1H-inden-1-yl)piperidin-4-amine] gave an EC50 of 500 to 1000 nM.
With `Fc1ccc(CN2CCC(NC3CCc4cc(OC5CCN(c6ccc(C(F)(F)F)cc6)CC5)ccc43)CC2)cc1` (stereo not drawn) [Compound 159, 1-(4-fluorobenzyl)-N-(5-(1-(4-(trifluoromethyl)phenyl)piperidin-4-yloxy)-2,3-dihydro-1H-inden-1-yl)piperidin-4-amine] the EC50 was 500 to 1000 nM.
